The test system of data set [1] is Magnaporthe grisea (Pyricularia oryzae). The data set can be described thus: microbe, parasite or virus in culture. It is filed as cell-based. The following applies: 72 h, read-out: control of Magnaporthe grisea.
The subject of data set [2] is Botryotinia fuckeliana (Botrytis cinerea). The data set can be described thus: Botryotinia fuckeliana (Botrytis cinerea) / liquid culture (gray mould). It is filed as cell-based. The following applies: growth inhibition determined photometrically 3-4 days after application, vs untreated control, read-out: disease control.
Data set [3] relates to Fusarium culmorum. The data set can be described thus: microbe, parasite or virus in culture. It is filed as cell-based. The following applies: 72 h, read-out: disease control.
Data set [4] relates to Glomerella lagenarium (Colletotrichum lagenarium). The data set can be described thus: Glomerella lagenarium (Colletotrichum lagenarium) / liquid culture (anthracnose). The following applies: Colletotrichum orbiculare, growth inhibition measured photometrically 3-4 days after application, vs untreated control, read-out: disease control. It is filed as cell-based.
The test system of data set [5] is Monographella nivalis (Microdochium nivale). The data set is described as follows: Monographella nivalis (Microdochium nivale) / liquid culture (foot rot cereals). The following applies: 96 h, growth inhibition determined photometrically 4-5 days after application, vs untreated control, read-out: disease control. The class given is cell-based.
The subject of data set [6] is Sclerotinia sclerotiorum. The data set can be described thus: Sclerotinia sclerotiorum / liquid culture (cottony rot). The following applies: 72 h, read-out: control of Sclerotinia sclerotiorum.
Procedure: Sclerotinia sclerotiorum/Liquid Culture (Cottony Rot)
Mycelia fragments of a newly grown liquid culture of the fungus are directly mixed into nutrient broth (Vogels broth). After placing a (DMSO) solution of test compound into a microtiter plate (96-well format) the nutrient broth containing the fungal material is added. The test plates are incubated at 24° C. and the inhibition of growth is determined photometrically 3-4 days after application.
Data set [7] concerns Gaeumannomyces graminis. The data set is described as follows: Gaeumannomyces graminis / liquid culture (take-all of cereals). The settings on record: growth inhibition determined photometrically 4-5 days after application, vs untreated control, read-out: disease control. The class given is cell-based.
The test system of data set [8] is Pyrenophora teres. The data set is described as follows: Pyrenophora teres / liquid culture (net blotch). The class given is cell-based. The settings on record: growth inhibition determined photometrically 3-4 days after application, vs untreated control.

Some results are limits rather than exact numbers.

A word on the melting point: it is the temperature, or range, at which the solid turns liquid. For `COC(=O)c1cccc2c1ncn2C1=NC(C)(C)C(C)(C)c2c(F)cccc21` [E-24], the melting point lay in the range of 178 to 179 °C. In data set [1], the inhibition of growth at 20 ppm is not below 80%.
In turn, `Cc1c(Cl)ccc2c1ncn2C1=NC(C)(C)C(C)(C)c2c(F)cccc21` [E-42] displayed a melting point of 102 to 103 °C. Moreover, the inhibition of growth at 200 ppm in data set [2] was not below 80%. For the same molecule, in data set [3], the inhibition of growth at 200 ppm is not below 80%. Also, the inhibition of growth at 200 ppm in [4] is not below 80%. Further, the inhibition of growth at 200 ppm in [5] was not below 80%. Also, in [1], the inhibition of growth at 20 ppm was not below 80%. The inhibition of growth at 20 ppm in [6] is not below 80%.
`Cc1cccc2c1ncn2C1=NC2(CC2)C2(CC2)c2ccccc21` [E-61]: the inhibition of growth at 200 ppm in [2], in [3], in data set [7], in [4] and in data set [5] was not below 80% in each case. The inhibition of growth at 20 ppm in data set [1] and in data set [6] was not below 80% in each case.
Regarding `Cc1c(F)ccc2c1ncn2C1=NC(C)(C)C(F)(F)c2cc(Cl)ccc21` [E-48], the inhibition of growth at 200 ppm in data set [2], in data set [3], in data set [7] and in data set [5] was not below 80% throughout. Further, the inhibition of growth at 20 ppm in data set [1] was not below 80%.
As to `CC1(C)N=C(n2cnc3cc(Cl)c(Cl)cc32)c2cccc(F)c2C1(C)C` [E-39], the melting point lay in the range of 126 to 127 °C. Moreover, the inhibition of growth at 200 ppm in data set [2] was not below 80%. For the same molecule, the inhibition of growth at 200 ppm in data set [4] was not below 80%. Also, the inhibition of growth at 200 ppm in data set [5] was not below 80%. For the same molecule, the inhibition of growth at 20 ppm in [1] was not below 80%. The inhibition of growth at 20 ppm in [6] is not below 80%.
Take `Cc1ccc2c(ncn2C2=NC(C)(C)C(F)(F)c3cc(Cl)ccc32)c1C` [E-49]: the inhibition of growth at 200 ppm in data set [2], in [3], in data set [7], in data set [4] and in data set [5] was not below 80% each time. For the same molecule, in data set [1], the inhibition of growth at 20 ppm was not below 80%.
For the molecule `Cc1cccc2c1ncn2C1=NC2(CC2)Cc2ccccc21` [E-59], the inhibition of growth at 200 ppm in [2], in data set [3], in data set [7], in [4] and in data set [5] was not below 80% throughout. In addition, in data set [1], the inhibition of growth at 20 ppm is not below 80%.
`Cc1cccc2c1ncn2C1=NC(C)(C)C(C)(C)c2c1ccc(Cl)c2F` [E-45] gave a melting point of 147 to 151 °C. In addition, in data set [2], the inhibition of growth at 200 ppm is not below 80%. The inhibition of growth at 200 ppm in data set [3] is not below 80%. Moreover, in data set [4], the inhibition of growth at 200 ppm was not below 80%. For the same molecule, the inhibition of growth at 200 ppm in data set [5] is not below 80%. Further, the inhibition of growth at 20 ppm in data set [1] was not below 80%. The inhibition of growth at 20 ppm in data set [6] was not below 80%.
`Cc1cccc2c1ncn2C1=NC(C)(C)C(F)(F)c2ccccc21` returned a melting point of 142 to 149 °C.
As for `Cc1cccc2c1ncn2C1=NCC2(CCCCC2)c2ccccc21` [E-52], the inhibition of growth at 200 ppm in data set [2] was not below 80%. Besides, the inhibition of growth at 20 ppm in data set [1] is not below 80%.
As to `Cc1ccc2c(ncn2C2=NC3(CC3)C3(CC3)c3ccccc32)c1C` [E-58], the melting point lay in the range of 141 to 143 °C. Further, the inhibition of growth at 200 ppm in data set [2] is not below 80%. Moreover, in [3], the inhibition of growth at 200 ppm is not below 80%. In addition, in [7], the inhibition of growth at 200 ppm was not below 80%. The inhibition of growth at 200 ppm in data set [4] is not below 80%. Moreover, the inhibition of growth at 200 ppm in data set [5] was not below 80%. In data set [1], the inhibition of growth at 20 ppm was not below 80%. Moreover, the inhibition of growth at 20 ppm in [6] is not below 80%.
For `CC1(C)N=C(n2cnc3c(C4CC4)cccc32)c2cccc(F)c2C1(C)C` [E-8], the inhibition of growth at 200 ppm in data set [2], in [7], in data set [4] and in [5] was not below 80% in each case. Further, in data set [1], the inhibition of growth at 20 ppm was not below 80%.
Consider `Cc1cccc2c1ncn2C1=NC(C)(C)Cc2c(Cl)cccc21` [E-40], for which the inhibition of growth at 200 ppm in data set [2], in data set [4] and in [5] was not below 80% in each case. The inhibition of growth at 20 ppm in data set [1] and in data set [6] was not below 80% each time.
For `CC1(C)N=C(n2cnc3ccccc32)c2cccc(F)c2C1(C)C` [E-2], the inhibition of growth at 200 ppm in data set [2], in data set [3], in data set [4] and in data set [5] was not below 80% throughout.
`CC1(C)N=C(n2cnc3c(C(F)(F)F)cccc32)c2cccc(F)c2C1(C)C` [E-5]: the inhibition of growth at 200 ppm in [2], in data set [4] and in data set [5] was not below 80% throughout. Besides, the inhibition of growth at 20 ppm in [1] and in data set [8] was not below 80% each time.
Regarding `Cc1cccc2c1ncn2C1=NC2(CCC2)Cc2ccccc21` [E-43], the melting point was 132 to 133 °C. In addition, in [2], the inhibition of growth at 200 ppm is not below 80%. The inhibition of growth at 200 ppm in data set [4] was not below 80%. In data set [5], the inhibition of growth at 200 ppm was not below 80%. Also, the inhibition of growth at 20 ppm in data set [1] is not below 80%. Also, the inhibition of growth at 20 ppm in data set [6] was not below 80%.
Take `COc1cccc2c1ncn2C1=NC(C)(C)C(C)(C)c2c(F)cccc21` [E-6]: the inhibition of growth at 200 ppm in data set [2], in [4] and in data set [5] was not below 80% each time. The inhibition of growth at 20 ppm in data set [1] and in data set [8] was not below 80% each time.
As for `Cc1cccc2c1ncn2C1=NC(C)(C)C(C)(C)c2c(F)cccc21` [Example 1], the melting point lay within 118 to 120 °C.
On to `Cc1cccc2c1ncn2C1=NC(C)(C)C(C)(C)c2c1ccc(F)c2F` [E-46], for which the melting point was 122 to 125 °C. In addition, the inhibition of growth at 200 ppm in data set [2] was not below 80%. Also, the inhibition of growth at 200 ppm in data set [3] was not below 80%. Besides, the inhibition of growth at 200 ppm in data set [4] was not below 80%. In [5], the inhibition of growth at 200 ppm is not below 80%. Further, the inhibition of growth at 20 ppm in data set [1] is not below 80%. Further, the inhibition of growth at 20 ppm in data set [6] is not below 80%.
For `Cc1cccc2c1ncn2C1=NC(C)(C)C(F)(F)c2cc(Cl)ccc21` [E-47], the inhibition of growth at 200 ppm in [2], in data set [3], in data set [7] and in data set [5] was not below 80% throughout. For the same molecule, the inhibition of growth at 20 ppm in data set [1] is not below 80%.
With `Cc1cccc2c1ncn2C1=NCC(C)(C)c2ccccc21` [E-44], the inhibition of growth at 200 ppm in [2], in data set [4] and in [5] was not below 80% each time. Further, the inhibition of growth at 20 ppm in [1] and in data set [6] was not below 80% throughout.
Turning to `Cc1cccc2c1ncn2C1=NC(C)(C)Cc2c(Br)cccc21` [E-38], the melting point lay in the range of 52 to 54 °C. In addition, in data set [2], the inhibition of growth at 200 ppm was not below 80%. Moreover, the inhibition of growth at 200 ppm in data set [4] is not below 80%. Also, the inhibition of growth at 200 ppm in [5] is not below 80%. Also, the inhibition of growth at 20 ppm in data set [1] is not below 80%. In data set [6], the inhibition of growth at 20 ppm was not below 80%.
For `CC1(C)N=C(n2cnc3c(Cl)cccc32)c2ccccc2C1=O` [E-29], the inhibition of growth at 200 ppm in [2] is not below 80%.
`CC1(C)N=C(n2cnc3ccccc32)c2ccccc2C12CC2` [E-3, 1′-(benzimidazol-1-yl)-3′,3′-dimethyl-spiro(cyclopropane-1,4′-isoquinoline)]: the inhibition of growth at 200 ppm in data set [2], in [7] and in data set [4] was not below 80% throughout.
As for `Cc1c(Br)ccc2c1ncn2C1=NC(C)(C)C(C)(C)c2c(F)cccc21` [E-41], the melting point lay within 122 to 124 °C. Further, the inhibition of growth at 200 ppm in data set [2] is not below 80%. Moreover, the inhibition of growth at 200 ppm in data set [3] was not below 80%. Moreover, the inhibition of growth at 200 ppm in data set [7] is not below 80%. Further, the inhibition of growth at 200 ppm in [4] is not below 80%. Further, in data set [5], the inhibition of growth at 200 ppm was not below 80%. For the same molecule, the inhibition of growth at 20 ppm in [1] is not below 80%. Moreover, the inhibition of growth at 20 ppm in data set [6] was not below 80%.
`CC1(C)N=C(n2cnc3c4c(ccc32)CCC4)c2cccc(F)c2C1(C)C` [E-51] displayed a melting point of 177 to 178 °C. The inhibition of growth at 200 ppm in data set [2] was not below 80%. Moreover, the inhibition of growth at 200 ppm in data set [3] is not below 80%. Further, in [7], the inhibition of growth at 200 ppm was not below 80%. The inhibition of growth at 200 ppm in [5] is not below 80%. The inhibition of growth at 20 ppm in [1] is not below 80%.
For the molecule `Cc1ccc2c(ncn2C2=NC(C)(C)C(F)(F)c3ccccc32)c1Cl` [E-31], the inhibition of growth at 200 ppm in data set [2], in [3], in [7], in [4] and in [5] was not below 80% each time. Further, the inhibition of growth at 20 ppm in [1] and in data set [6] was not below 80% each time.
`CC1(C)N=C(n2cnc3c(Cl)cccc32)c2ccc(Cl)cc2C1(F)F` [E-37]: the melting point was 197 to 200 °C. The inhibition of growth at 200 ppm in data set [2] was not below 80%. For the same molecule, the inhibition of growth at 200 ppm in [7] was not below 80%. Moreover, the inhibition of growth at 200 ppm in [5] is not below 80%. In addition, the inhibition of growth at 20 ppm in data set [1] was not below 80%. Also, the inhibition of growth at 20 ppm in data set [6] is not below 80%.

The values are drawn from patent US10273221B2, “Microbiocidal heterobicyclic derivatives” (Syngenta Participations AG, priority 2015, dated 2019).
